Marks after values point to notes of the source that are not given here.
Tests used:
CD-1 mice = assay: Wire hang test; format: in vivo
Procedure: Five-month old male CD-1 mice (30.1-35.7 g, 7.5 cm - 8.8 cm) were purchased from Charles River (Wilmington, MA). Adult mice were chosen to mimic the mean age of onset of ALS-PDC (Kurland, 1988; Kurland et al., 1994). Thirty mice for the SG study were randomly divided into 2 groups (14 control and 16 experimental animals). All animals were housed singly in a virus-free barrier facility in a room maintained at 22°C under a 12 hour light/dark cycle. The mice were provided ad libitum access to food and water.
(§1) The synthetic SG was mixed with finely ground Purina Chow mouse pellets (Mouse Diet™, Purina) to create the experimental pellets with a SG content of 1000 µg per pellet. Dry materials were blended with a sterile silicon spatula. For every 5 g of standard feed, 2.5 mL of doubly-distilled water (dd)H2O was added and the dough was kneaded and round up into pellets. A single sterol glucoside containing pellet was placed in the feeding tray each morning before the addition of regular mouse chow (ad libitum). All experimental pellets were entirely consumed by the mice each day. Control mice were fed standard mouse chow pellets of identical weight with no additives. SG feeding was conducted daily for 15 weeks and mice were behaviorally monitored until sacrifice at 35 weeks (time point 1) or 52 weeks (time point 2).
Wire hang: Neuromuscular strength was tested by the wire hang (or hanging wire) test (Wilson et al., 2003d; Wilson et al., 2004c; Wilson et al., 2005; Tabata et al., 2008). Both balance and grip strength are required for a mouse to keep its body suspended (Crawley, 2000). Mice were placed on a wire cage lid elevated 50 cm above a soft landing surface. The latency to fall off the wire (maximum 60 seconds) (Sango et al., 1996) was measured from the moment the wire apparatus was inverted (180°). Wire hang testing was conducted biweekly.

Heat shock protein-70 = Heat shock protein-70 immunofluorescence; format: in vivo, CD-1 mice; conditions: for Anti-Hsp-70 (VHLsc) / Anti-Hsp-70 (VHTsc): SG-fed vs control; for Anti-Hsp-70 (VHLsc): ventral horn lumbar spinal cord; for Anti-Hsp-70 (VHTsc): ventral horn thoracic spinal cord
Procedure: as §1
Tissue-mounted slides were processed for fluorescence microscopy as follows: Sections were rinsed in coplin jars for 45 minutes at room temperature (RT) in three changes of PBS. Sections were then incubated at RT for 30 minutes in a blocking permeabilization solution made of 5% normal goat serum (NGS), 5% normal rabbit serum (NRS) or 5% BlokHen II (Aves Labs, Inc., Tigard, OR), 0.05% Triton X-100 and PBS. Subsequently, the blocking solution was tipped off and the slides were rinsed in PBS for 2 minutes. Sections were then incubated overnight in a humidified chamber at 4°C with a PBS buffered solution that contained 1% NGS or 1% NRS, 1% bovine serum albumin (BSA) and one of the following primary antibodies: (a) rabbit anti-human/mouse ATF-3 (H-90) IgG (polyclonal, 1:500; Santa Cruz Biotechnology, Inc., Santa Cruz, CA), (b) anti-activated caspase-3 IgG (monoclonal, 1:250; Chemicon International, Temecula, CA) (see FIGURE 9), (c) goat antihuman/ mouse choline acetyl transferase (ChAT) IgG (polyclonal, 1:100; Chemicon International, Temecula, CA) (see FIGURE 6), (d) rabbit anti-mouse glial fibrillary acidic protein IgG (polyclonal, 1:250; GeneTex Inc., San Antonio, TX) (see FIGURE 7), (e) rabbit antihuman/ mouse ionized calcium binding adaptor molecule 1 (IBA-1) IgG (polyclonal, 1:500; Wako Pure Chemical Industries, Ltd, Richmond, VA), (f) mouse anti-human/mouse clone AT8 PHF-1 Tau (monoclonal, 1:200; Pierce Biotechnology Inc., Rockford, IL), (g) rabbit anti-human/mouse TAR DNA-binding protein 43 (TDP43) (1:100; ProteinTech Group Inc., Chicago, IL) (See FIGURE 14), (h) chicken anti-human/mouse β-tubulin 3 (TuJ1 antigen) (polyclonal, 1:100, Aves Labs, Inc., Tigard, OR), (i) rabbit anti-mouse tyrosine hydroxylase (polyclonal, 1:500, Chemicon International, Temecula, CA or polyclonal 1:1000, Affinity BioReagents, Golden, CO) (FIGURE 10), (j) rabbit anti human/mouse anti-pJunser73 IgG (polyclonal, 1:200; Chemicon International, Temecula, CA), (k) rabbit anti human/mouse anti-HSP-70 IgG (polyclonal, 1:200; Chemicon International, Temecula, CA), or (1) rabbit anti human/mouse anti-HSP-25 IgG (polyclonal, 1:100; Chemicon International, Temecula, CA). In each experiment, additional slides were incubated with the primary antibody and the secondary antibody omitted or with secondary antibody and primary antibody omitted to test for nonspecific staining. Where appropriate, positive control slides (Alzheimer's disease patient entorhinal cortex, obtained from Drs. Claudia Schwab and Patrick McGeer of the Kinsmen Laboratory, University of British Columbia, Vancouver, BC, Canada) were also processed as above for comparison. Following overnight incubation with the primary antibody, slides were rinsed for 45 minutes at RT in three changes of PBS. […]

[1] = SG-fed group over time, 35 to 52 wk

CCC(C=CC(C)C1CCC2C3CC=C4CC(OC5OC(CO)C(O)C(O)C5O)CCC4(C)C3CCC12C)C(C)C (stereo not drawn) [SG]
increase in the time between inversion of the apparatus and falling (CD-1 mice; SG fed mice, control group showed an increase): did not | Wirehang test performance (CD-1 mice; SG-fed animals, prior to 35 weeks): decline in performance | Wirehang (CD-1 mice; SG-fed vs control, time-point 2, 52 wk): Wirehang* (*p<0.05) | Anti-Hsp-70 Lsc (Heat shock protein-70; [1]): Anti-Hsp-70 Lsc (SG-fed group over time) (ns, p=0.1223) | Anti-Hsp-70 Tsc (Heat shock protein-70; [1]): Anti-Hsp-70 Tsc (SG-fed group over time) (ns, p=0.8319) | Anti-Hsp-70 (VHLsc) (Heat shock protein-70; time-point 1, 35 wk): Anti-Hsp-70: +1036%*** | Anti-Hsp-70 (VHTsc) (Heat shock protein-70; time-point 1, 35 wk): Anti-Hsp-70: (ns, p=0.9697) | Anti-Hsp-70 (VHLsc) (Heat shock protein-70; time-point 2, 52 wk): Anti-Hsp-70: +425%* (VHLsc) | Anti-Hsp-70 (VHTsc) (Heat shock protein-70; time-point 2, 52 wk): Anti-Hsp-70: (ns, p=0.2793)
